From patent US7012080B2, “Imidazopyridine compounds as 5-HT4 receptor agonists” (Pfizer Inc., priority 2002, dated 2006)

Assays:
5-HT4 receptor = target: T1, 5-HT4 receptor (UniProt Q13639); test: 5-HT4 receptor binding ([3H]-GR113808 displacement)
T1 construct: Human 5-HT4(d) transfected HEK293 cells were prepared and grown in-house
Protocol: The 5-HT4 receptor binding affinities of the compounds of this invention are determined by the following procedures. […]
Human 5-HT4(d) transfected HEK293 cells were prepared and grown in-house. The collected cells were suspended in 50 mM HEPES (pH 7.4 at 4° C.) supplemented with protease inhibitor cocktail (Boehringer, 1:1000 dilution) and homogenized using a hand held Polytron PT 1200 disruptor set at full power for 30 sec on ice. The homogenates were centrifuged at 40,000×g at 4° C. for 30 min. The pellets were then resuspended in 50 mM HEPES (pH 7.4 at 4° C.) and centrifuged once more in the same manner. The final pellets were resuspended in an appropriate volume of 50 mM HEPES (pH 7.4 at 25° C.), homogenized, aliquoted and stored at −80° C. until use. An aliquot of membrane fractions was used for protein concentration determination using BCA protein assay kit (PIERCE) and ARVOsx plate reader (Wallac).
For the binding experiments, 25 μl of test compounds were incubated with 25 μl of [^3H]-GR113808 (Amersham, final 0.2 nM) and 150 μl of membrane homogenate and WGA-SPA beads (Amersham) suspension solutions (10 μg protein and 1 mg SPA beads/well) for 60 minutes at room temperature. Nonspecific binding was determined by 1 μM GR113808 (Tocris) at the final concentration. Incubation was terminated by centrifugation at 1000 rpm. Receptor-bound radioactivity was quantified by counting with MicroBeta plate counter (Wallac).

HERG potassium channel = target: T2, HERG potassium channel (Homo sapiens, UniProt Q12809); test: Human dofetilide binding ([3H]-dofetilide, HERG transfected HEK293S cell membranes); conditions: for Ki: [3H]-dofetilide 5 nM, human HERG transfected HEK293S membranes; for TI (Defetilide/5HT4): TI = Dofetilide Binding Ki [μM] / 5HT4 Binding Ki [nM] × 1000
T2 construct: expressed in transfected cells; host or cells: HEK293S
Protocol: Inhibitory activity at HERG channel was estimated from affinity for HERG type potassium channel was investigated by checking [^3H]dofetilide binding, which can predict inhibitory activity at HERG channel (Eur. J. Pharmacol., 430, pp 147–148, 2001). Selected compounds with low [^3H]dofetilide binding activity were evaluated in IHERG assay to check activity at HERG channel. Introducing a branched chain group to nitrogen atom in piperidine ring contributed to potent 5-HT4 receptor agonist activities with reduced inhibitory activity at HERG channel. The compounds of the present invention may show less toxicity, good absorption, distribution and less drug-drug interaction, and have metabolic stability.
Human HERG transfected HEK293S cells were prepared and grown in-house. The collected cells were suspended in 50 mM Tris-HCl (pH 7.4 at 4° C.) and homogenized using a hand held Polytron PT 1200 disruptor set at full power for 20 sec on ice. The homogenates were centrifuged at 48,000×g at 4° C. for 20 min. The pellets were then resuspended, homogenized, and centrifuged once more in the same manner. The final pellets were resuspended in an appropriate volume of 50 mM Tris-HCl, 10 mM KCl, 1 mM MgCl2 (pH 7.4 at 4° C.), homogenized, aliquoted and stored at −80° C. until use. An aliquot of membrane fractions was used for protein concentration determination using BCA protein assay kit (PIERCE) and ARVOsx plate reader (Wallac).
Binding assays were conducted in a total volume of 200 μl in 96-well plates. Twenty μl of test compounds were incubated with 20 μl of [^3H]-dofetilide (Amersham, final 5 nM) and 160 μl of membrane homogenate (25 μg protein) for 60 minutes at room temperature. Nonspecific binding was determined by 10 μM dofetilide at the final concentration. Incubation was terminated by rapid vacuum filtration over 0.5% presoaked GF/B Betaplate filter using Skatron cell harvester with 50 mM Tris-HCl, 10 mM KCl, 1 mM MgCl2, pH 7.4 at 4° C. The filters were dried, put into sample bags and filled with Betaplate Scint. Radioactivity bound to filter was counted with Wallac Betaplate counter.

T2 sequence (Q12809 whole entry): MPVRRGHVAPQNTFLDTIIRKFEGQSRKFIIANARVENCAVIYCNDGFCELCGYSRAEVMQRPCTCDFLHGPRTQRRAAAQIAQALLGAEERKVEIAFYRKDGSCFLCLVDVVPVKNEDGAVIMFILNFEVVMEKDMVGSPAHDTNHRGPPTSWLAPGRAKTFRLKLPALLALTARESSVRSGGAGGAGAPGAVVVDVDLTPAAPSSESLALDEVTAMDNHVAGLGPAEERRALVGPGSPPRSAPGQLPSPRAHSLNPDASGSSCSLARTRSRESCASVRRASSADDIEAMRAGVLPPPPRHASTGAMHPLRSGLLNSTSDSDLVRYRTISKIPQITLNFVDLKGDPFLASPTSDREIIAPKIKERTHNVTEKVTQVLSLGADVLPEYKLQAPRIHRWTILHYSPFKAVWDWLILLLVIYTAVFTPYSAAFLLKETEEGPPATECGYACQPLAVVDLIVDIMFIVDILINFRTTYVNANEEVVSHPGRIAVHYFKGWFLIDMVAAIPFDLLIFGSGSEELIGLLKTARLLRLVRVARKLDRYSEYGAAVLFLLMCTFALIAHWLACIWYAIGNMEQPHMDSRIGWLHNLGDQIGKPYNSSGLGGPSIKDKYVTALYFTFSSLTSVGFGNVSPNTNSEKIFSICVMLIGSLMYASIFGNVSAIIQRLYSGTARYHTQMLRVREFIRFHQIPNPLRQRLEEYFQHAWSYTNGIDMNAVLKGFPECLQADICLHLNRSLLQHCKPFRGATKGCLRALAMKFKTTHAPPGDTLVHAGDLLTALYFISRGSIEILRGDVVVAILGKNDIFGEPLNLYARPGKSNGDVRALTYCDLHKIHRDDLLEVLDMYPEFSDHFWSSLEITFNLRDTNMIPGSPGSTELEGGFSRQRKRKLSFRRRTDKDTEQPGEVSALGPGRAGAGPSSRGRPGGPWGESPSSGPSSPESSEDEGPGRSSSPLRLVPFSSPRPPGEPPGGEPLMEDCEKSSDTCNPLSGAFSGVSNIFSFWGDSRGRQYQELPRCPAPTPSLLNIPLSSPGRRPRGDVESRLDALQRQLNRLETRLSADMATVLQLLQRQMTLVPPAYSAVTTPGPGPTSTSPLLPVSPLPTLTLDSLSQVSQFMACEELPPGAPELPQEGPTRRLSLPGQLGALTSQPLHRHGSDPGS

melting point [°C] | Ki (5-HT4 receptor) [nM] | SMILES | Ki (HERG potassium channel) [nM] | TI (Defetilide/5HT4) (HERG potassium channel)
199 | – | COC(C)(C)CCN1CCC(CNC(=O)c2cc(Cl)c(N)n3cc(C)nc23)CC1 [Example 8, 5-Amino-6-chloro-N-{[1-(3-methoxy-3-methylbutyl)piperidin-4-yl]methyl}2-methylimidazo[1,2-a]pyridine-8-carboxamide] | – | –
– | 1.2 | CCCCN1CCC(CNC(=O)c2cc(Cl)c(N)n3cc(C)nc23)CC1 [Compound A, reference compound] | 2300 | 1,900
– | 4.6 | COCCCN1CCC(CNC(=O)c2cc(Cl)c(N)n3cc(C)nc23)CC1 [Compound B, reference compound] | 6000 | 1,300
216 to 219 | 0.82 | Cc1cn2c(N)c(Cl)cc(C(=O)NCC3CCN(CC(C)C)CC3)c2n1 [Example 1, 5-Amino-6-chloro-N-[(1-isobutylpiperidin-4-yl)methyl]-2-methylimidazo[1,2-a]pyridine-8-carboxamide] | 5750 | 7,000
234 | 0.77 | CCc1cn2c(N)c(Cl)cc(C(=O)NCC3CCN(CCC(C)(C)C)CC3)c2n1 [Example 3, 5-Amino-6-chloro-N-{[1-(3,3-dimethylbutyl)piperidin-4-yl]methyl}-2-ethylimidazo[1,2-a]pyridine-8-carboxamide] | 3870 | 5,000

Second part, the compound before the results:

SMILES | melting point [°C] | Ki (5-HT4 receptor) [nM] | Ki (HERG potassium channel) [nM] | TI (Defetilide/5HT4) (HERG potassium channel)
CCc1cn2c(N)c(Cl)cc(C(=O)NCC3CCN(CC(C)(C)OC)CC3)c2n1 [Example 4, 5-Amino-6-chloro-2-ethyl-N-{[1-(2-methoxy-2-methylpropyl)piperidin-4-yl]methyl}imidazo[1,2-a]pyridine-8-carboxamide] | 211 | 1.2 | 22300 | –
COCC(C)(C)CN1CCC(CNC(=O)c2cc(Cl)c(N)n3cc(C)nc23)CC1 [Example 9, 5-amino-6-chloro-N-{[1-(3-methoxy-2,2-dimethylpropyl)piperidin-4-yl]methyl}2-methylimidazo[1,2-a]pyridine-8-carboxamide] | 199 | – | – | –
Cc1cn2c(N)ccc(C(=O)NCC3CCN(CC(C)C)CC3)c2n1 [Example 2, 5-Amino-N-[(1-isobutylpiperidi-4-yl)methyl]-2-methylimidazo[1,2-a]pyridine-8-carboxamide] | – | 3.1 | 24100 | 7,800
COC(C)(C)CN1CCC(CNC(=O)c2cc(Cl)c(N)n3cc(C)nc23)CC1 [Example 5, 5-Amino-6-chloro-2-methyl-N-{[1-(2-methoxy-2-methylpropyl)piperidin-4-yl]methyl}imidazo[1,2-a]pyridine-8-carboxamide] | 211 | 2 | > 24000 | –
